Legend:
E Coli [1] = conditions: about 20 mM aspartic acid; cited from earlier work
[2] = capillary assay; cited from earlier work
[3] = system: E. Coli strain (ATCC 43888); test: three-channel, six-chamber microfluidic chemotaxis assay; type: cell-based, Escherichia coli
Description: PBS, Tris and LB were autoclaved before use. E Coli strain (ATCC 43888) was obtained from Fisher Scientific (Pittsburgh, Pa.). All cultures were grown in 10 mL of LB incubated at 37° C. for approximately 4 hours until the optical density of sample at wavelength of 600 nm reached 0.8. Optical density at 600 nm was measured for cell culture quantification.
An exemplary device described and depicted herein consists of a center channel that delivers a bacteria sample from a small reservoir to the central interaction region, where the channel is perpendicularly connected to six chambers. […] These channels serve as a source for generating a chemical gradient in the chambers. A nitrocellulose membrane (Millipore type GSTF) with a 0.22 μm pore size serves as a porous medium that separates the side channels from the chambers while allowing chemicals to diffuse through to the chambers. The pore size of 0.22 μm was selected as an exemplary pore size to ensure chemical axial flow through the porous nitrocellulose substrate, while prohibiting the passage of the cells or analyte to be analyzed through the porous substrate. Other pore sizes may be utilized depending on the type of assay and cells or analyte to be analyzed are contemplated herein.
The same volume of buffer saline was taken back through the filter into the syringe; suspending the cells in the buffer saline medium. This process was repeated three times to ensure the complete exchange of growth medium with buffer saline. The bacterial motility was not affected.
The microfluidic device was prepared as follow. The top glass assembly was properly cleaned and reused for many experiments, while the membrane and the bottom glass were renewed for each experiment. Acetone, isopropanol, and DI water were used to effectively clean the top glass and reservoirs. The membrane layer was soaked entirely in buffer solution for 30 min before use to ensure the removal of all air bubbles. The soaked membrane was then aligned with the inlet/outlet ports on the top glass and sandwiched between the top glass and another glass slide using 6 small stainless steel clips that provide constant and consistent pressure over the entire membrane area, as shown in FIG. 3.
After the device assembly, the input reservoirs were filled with buffer and the output reservoirs were vacuumed for a few seconds, the strong resulting flow expels all possible bubbles from the microfluidic system. The channels were inspected under microscope before conducting tests. All the experiments were conducted at least for three times to determine reproducibility. The bacterial chemotaxis experiments were conducted at an ambient temperature of 36° C.
Chemotactic response of cells to a chemical gradient was tested in another set of experiments. […]

E Coli [4] = conditions: agarose gel diffusive medium; cited from earlier work

Compound	chemotactic index (peak response) (E Coli [1])	peak concentration for chemotaxis [2]	chemotaxis index (IC) ([3]; 0.5 mM aspartic acid in PBS buffer as attractant, cells in attractant chambers vs buffer side chambers, about 30 min)	aspartic acid concentration giving a more significant chemotactic response ([3]; different aspartic acid concentrations tried) [mM]	concentration generating the maximum chemotactic response (E Coli [4]) [mM]	ratio of bacteria count in the buffer chambers to the repellent side chambers ([3]; 0.5 mM NiCl2 as repellent, Tris Buffered Saline)	motility of the cells after introducing the repellent ([3]; due to an increase in tumbling frequency)
N[C@@H](CC(=O)O)C(=O)O [aspartic acid, L-aspartic acid]	1.74	about 10 mM	4	0.5	0.5		
[Cl][Ni][Cl] [NiCl2, nickel chloride]						more than 8 times	reduced to some degree
